# Experimental data: patent US12545695B2, “Compounds for inhibiting neovascularization factors and use thereof” (UNIST (ULSAN NATIONAL INSTITUTE OF SCIENCE AND TECHNOLOGY), priority 2019, dated 2026)
# Columns and labels:
# [1] = tested on: HIF1-α; assay: Drug activity in MIO-M1-HRE/GFP cell line under hypoxia (GFP fluorescence); assay type: cell-based; details: 1% O2, 24 hours (FIG. 25)
# Procedure: After MIO-M1 Muller cells were transfected with a 5HRE/GFP plasmid (Addgene #46926) (jetPrime kit), plasmid-transfected cells were selected using 1 mg/ml G418 (neomycin) which is a selection marker. A stable cell line was manufactured by selecting cells that were growing in the form of a colony from single cells. The manufactured stable MIO-M1-HRE/GFP cell line was aliquoted into 96 wells and treated with a drug at each concentration the next day. After the cell line was exposed to a hypoxic environment (1% O2) for 24 hours, GFP (Ex/Em: 488/507) fluorescence signals were measured by a SYNERGY NEO microplate reader (BioTek Instrument). As a negative control, DMSO, which is a solvent in which a drug was dissolved, was used, and calculation was performed based on the negative control as 100%.
# [2] = tested on: HIF-1α; assay: Western blot of HIF-1α in Muller cells (MIO-M1) under hypoxia; assay type: cell-based; details: MIO-M1, hypoxic chamber 1% O2 (FIG. 8)
# Procedure: (§1) Muller cells (MIO-M1) were cultured at 37° C. and 5% CO2, and DMEM-low glucose (Sigma) including 10% fetal bovine serum and 1% penicillin & streptomycin was used as the medium. A hypoxic chamber was maintained at 37° C., 5% CO2 and 1% O2.
# Muller cells (MIO-M1) were seeded in the number of 4×10^5 on a 60-millimeter plate and cultured in 3 ml of medium for 24 hours. The next day, the cells were treated with SMX, a mitochondrial heat shock protein 90 (TRAP1) inhibitor according to the concentrations shown in the drawing and cultured in a hypoxic chamber for 6 hours. Whole cell lysates were made from the cultured cells, electrophoresed, transferred to a PVDF membrane, and then treated with a primary antibody at 4° C. for 18 hours. The next day, the whole cell lysates were treated with a secondary antibody for 1 hour and protein expression was analyzed using a western blotting detection reagent.
# as §1, with “O2. […] The next day, the whole cell lysates were treated with a secondary antibody for 1 hour and protein expression was analyzed using a western blotting detection reagent.” for “O2.”
# [3] = tested on: oxygen-induced retinopathy mouse model; assay: Oxygen-induced retinopathy mouse model, intraocular injection, retinal vascular analysis; assay type: in vivo, C57BL/6J mice; details: 1 ul of 0.15 mM intraocularly injected once at P12, analysis P17 (FIG. 17)
# Procedure: An oxygen-induced retinopathy mouse model was induced by rearing young C57BL/6J (Hyochang Science Inc.) mice aged 7 days after birth (P7) in a hyperoxic chamber (Coy Lab. in vivo chamber, 75% O2) for 5 days (P12), and then rearing the mice in a normoxic environment for 5 days (P17). After the young mice were removed from the hyperoxic chamber (P12), 1 ul of SMX was intraocularly injected once at a concentration of 0.15 mM (0.1% DMSO). The SMX used for ocular injection was used after being diluted in phosphate buffer saline (1×PBS) to 0.1%, and 0.1% DMSO in 1×pbs was used in control mice. In the case of Eylea (aflibercept, anti-VEGFab), 40 ug was diluted in 1 ul and 1 ul was intraocularly injected.
# The oxygen-induced retinopathy mouse model was formed, and then perfused with 1×PBS and 4% PFA. After mouse eyes were extracted and fixed in 4% PFA, the retinas were isolated. The isolated retinas were washed with 1×PBS, and then blocked (0.1% BSA, 0.1% Triton X-100 in 1×PBS) at room temperature for 1 hour. The retinas were treated with a CD31 blood-vessel staining antibody (CD31, Cell Signaling, 1:100) overnight at 4° C. […] Blood vessel staining was analyzed under a fluorescence microscope (Zen, Axio Zoom). […]
# The oxygen-induced retinopathy mouse model was formed, and then perfused with 1×PBS and 4% PFA. […] Blood vessel staining was analyzed under a fluorescence microscope (Zen, Axio Zoom). […]
smiles,measurement,setting,value
COC1=C(OC)C(=O)C(CCCCCCCCCC[P+](c2ccccc2)(c2ccccc2)c2ccccc2)=C(C)C1=O [SMx],suppression of neovascularization factor HIF1-α (HRE/GFP signal),[1],suppressed
same,expression of HIF-1α,[2],suppressed
same,avascular area of the retina,[3],significantly reduced compared to the Eylea-injected mouse retina
same,neovascular area of the retina,[3],reduced to the same level as that of the Eylea-injected mouse retina
